Holding throughout (assay): DTP human tumour cell line panel, 48 h
Experiment [1] concerns MOLT-4 leukemia.
Experiment [2] concerns RXF 393 renal.
Experiment [3] concerns SNB-19 CNS.
Experiment [4] relates to MCF7 breast.
Experiment [5] deals with MDA-N.
Experiment [6] deals with U251 CNS.
Experiment [7] has as its system M14 melanoma.
Experiment [8] has as its system T-47D breast.
Experiment [9] has as its system SF-539 CNS.
Experiment [10] has as its system RPMI-8226 leukemia.

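A five-concentration, 48-hour dose response in 96-well plates underlies each endpoint, interpolated linearly between surrounding concentrations. GI50 marks 50% less growth. TGI is the concentration that stops growth completely.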

What is called TGI is the concentration at which net growth stops. Read a low TGI as more potent growth arrest. Broadly, the GI50 is the concentration at which growth is held to half of that of the control.

Consider `CC1(C)O[C@@H](CP(c2cccc3ccccc23)c2cccc3ccccc23)[C@H](CP(c2cccc3ccccc23)c2cccc3ccccc23)O1`, for which the TGI in experiment [1], in experiment [2], in [3], in experiment [4], in [5] and in experiment [6] was over 100 µM throughout. The TGI in experiment [7] and in [8] was over 100 µM each time.
As for `O=C1OC(c2ccccc2)=N/C1=C/N1CCCC1C(=O)O` (stereo not drawn), the TGI in [2], in experiment [3], in experiment [9], in experiment [10], in experiment [6] and in [7] was over 100 µM in each case.
For the compound `O=C(NCCCCNCCCNC(=O)OCc1ccccc1)OCc1ccccc1`, the TGI is 73.6 µM in [1]; 66.6 µM in experiment [2]; over 100 µM in experiment [3]; 71.2 µM in experiment [4]; 43.1 µM in experiment [9]; over 100 µM in experiment [10]. Further, the figures for the concentration for total growth inhibition (TGI) in experiment [6], in experiment [7] and in experiment [8] were over 100 µM, 40.1 µM and 57.8 µM, respectively.
As to `CN(CCN(C)C(=O)CCn1ccc(=O)[nH]c1=O)C(=O)CCn1ccc(=O)[nH]c1=O`, the concentration for total growth inhibition (TGI) in [1], in [2], in [3], in experiment [9], in experiment [10] and in experiment [6] was over 100 µM in each case. For the same compound, the TGI in [7] is over 100 µM.
For `COc1ccc(N2C(=O)C(N3C(=O)C=CC3=O)C2C=O)cc1` (stereo not drawn), the TGI in experiment [3], in [9], in experiment [10], in experiment [6] and in experiment [7] was over 100 µM in each case.
For `CCOC(=O)C[n+]1ccc2c([nH]c3cc(OC)ccc32)c1C`, the TGI in experiment [1], in experiment [2], in [3], in experiment [4], in experiment [9] and in [10] was over 100 µM throughout. This compound returned a TGI in experiment [6] of over 100 µM.
In the case of `COC(=O)[C@@H]1O[C@]12[C@@H](CO[Si](C)(C)C(C)(C)C)O[C@@H](n1cc(C)c(=O)[nH]c1=O)[C@@H]2O[Si](C)(C)C(C)(C)C`, the TGI stood at 7.42 µM in experiment [1]; 22.7 µM in experiment [2]; 26 µM in experiment [3]; 75.3 µM in experiment [9]; 27.6 µM in experiment [5]; 24.7 µM in experiment [6]. The TGI came out at 35.9 µM in [7] and 27.3 µM in experiment [8].
On to `CCCCCCc1cn([C@H]2C[C@H](O)[C@@H](CO)O2)c(=O)[nH]c1=O`, for which the TGI in experiment [2], in experiment [3], in [4], in [9], in [10] and in [6] was over 100 µM throughout.
As to `CCOC(=O)c1c(-c2ccc(OC)c(O)c2)c(C#N)c(=S)n(C2OC(CO)C(O)C(O)C2O)c1-c1ccccc1` (stereo not drawn), the TGI in experiment [1], in [2], in experiment [3], in experiment [5], in experiment [10] and in [6] was over 100 µM each time. In experiment [7], this compound had a TGI of over 100 µM.
For the compound `CCOC(=O)C1=C(C)N(c2ccc(C)cc2)C2(O)C=CC(=O)C3=C(O)c4ccccc4C(=O)C312` (stereo not drawn), the TGI in [1] came to 1.26 µM; in experiment [2], 62.1 µM; in [3], 80.2 µM; in [4], 63 µM; in [9], 44.1 µM; in experiment [5], 69.5 µM. Further, the TGI in experiment [10] was 53.5 µM; in experiment [6] it was over 100 µM; in experiment [7], over 100 µM.
Consider `c1cc2ccc1CNCCN1CCNCc3ccc(cc3)Oc3ccc(cc3)CNCCN(CCNCc3ccc(cc3)O2)CCNCc2ccc(cc2)Oc2ccc(cc2)CNCC1`, for which the GI50 in [2] is 1.78 µM; in experiment [4], 0.581 µM; in experiment [9], 1.44 µM; in [6], 0.682 µM; in experiment [7] it was 1.7 µM; in experiment [8] it was 1.63 µM. In addition, the TGI in [2] was 3.72 µM; in experiment [4] it was 2.1 µM; in experiment [9], 2.76 µM; in experiment [6] it was 1.99 µM; in experiment [7], 3.38 µM; in [8], 3.61 µM.
Take `COc1cc(C2(C)SCCCS2)c(I)c(OC)c1OC`: the TGI in experiment [1], in [3], in [9], in [10], in experiment [6] and in experiment [7] was over 100 µM throughout.
As to `C[n+]1c(-c2ccc(/C=N/Nc3ccnc(N/N=C/c4ccc(-c5cn6ccccc6[n+]5C)cc4)n3)cc2)cn2ccccc21`, the TGI in experiment [1] is over 100 µM; in experiment [3], over 100 µM; in experiment [9], 40.1 µM; in experiment [5], over 100 µM; in experiment [10], 73.3 µM; in [7] it was over 100 µM. In addition, the TGI in [8] is over 100 µM.
With `NC1CCCCC1N.O=S(=O)([O-])CCCN1CCN(CCO)CC1.O=S(=O)([O-])CCCN1CCN(CCO)CC1.[Pt+4]`, the GI50 in experiment [1] is 0.587 µM; in experiment [2], 15.9 µM; in experiment [3], 43.1 µM; in [4], 3.26 µM; in [9] it was 10.7 µM; in experiment [10] it was 0.423 µM. Further, the GI50 in [6] was 14.9 µM. The TGI is 20.6 µM in experiment [1]; 82.5 µM in [2]; over 100 µM in [3]; over 100 µM in experiment [4]; over 100 µM in [9]; 20.5 µM in experiment [10]. Also, in [6], the total growth inhibition concentration (TGI) was over 100 µM.
Regarding `CC1(C)N=C(N)N=C(N)N1c1ccc(OCCCOc2ccccc2)c(Cl)c1`, the TGI is 16.8 µM in experiment [1]; 22.8 µM in experiment [2]; 1.06 µM in experiment [3]; 14.8 µM in experiment [4]; 15.5 µM in [9]; 28.9 µM in [10]. Also, the TGI in experiment [6] is 11.2 µM.

These data come from PubChem BioAssay (NCI).
